≈ marks a conversion by molar mass, not a printed value. Where a SMILES comes first, the peptide text is derived from it. Bridges are numbered along the chain shown (N, C = ends). Roman numbers before positions name the chains, in order. [ ]: non-standard residue; d: D form. Hiv = CC(C)[C@H](O)C(=O)O; dDab = NCC[C@@H](N)C(=O)O; hSer = N[C@@H](CCO)C(=O)O; Nle = CCCC[C@H](N)C(=O)O; Dab = NCC[C@H](N)C(=O)O; Abu = CC[C@H](N)C(=O)O; Dap = NC[C@H](N)C(=O)O
Key:
male ICR mice = test: Tolerability in a mouse model (Maximum Tolerated Dose assay); format: in vivo; settings: groups of 3
Procedure, shortened: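 Groups of 3 male ICR mice weighing 23±3 g received two subcutaneous doses, 12 h apart, of 30 or 40 mg/kg in saline adjusted to pH 6.5-7.6. Observation for 30 min after each dose covered autonomic effects and acute toxicity, including death.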

[1] = test system: human red blood cells (hRBC); test: Hemolysis; format: cell-based; settings: red cells of human, 1 h, 200
Procedure, shortened: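 Percent hemolysis relative to 2% Triton X-100 (100%) and PBS/10% water (0%), from blank-corrected OD540 of diluted supernatants. Peptides tested at 200 μg/mL against 20% (v/v) washed human erythrocytes, 1 h, 37° C, shaking at 300 rpm.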

[2] = test system: Pseudomonas aeruginosa ATCC 27853; format: cell-based; settings: ATCC 27853
Procedure, shortened: (§1)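 MIC in μg/mL, read as absence of visible growth after 18-20 h incubation at 35° C, by standard CLSI microdilution. Peptides tested in two-fold serial dilution in cation-adjusted MH-II broth containing 0.002% (final) Polysorbate 80, against roughly 10^6 CFU/mL inocula.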

[3] = test system: Enterobacter cloacae 848840; format: cell-based; settings: 848840
Procedure, shortened: as §1

[4] = test system: Escherichia coli ATCC 25922; format: cell-based; settings: ATCC 25922
Procedure, shortened: as §1

[5] = test system: Acinetobacter baumannii DSM 30008; format: cell-based; settings: DSM 30008
Procedure, shortened: as §1

Escherichia coli 926415 = format: cell-based; settings: 926415
Procedure, shortened: as §1

[6] = test system: Klebsiella pneumoniae SSI #3010; format: cell-based; settings: SSI #3010
Procedure, shortened: as §1

[7] = test system: Acinetobacter baumannii 872842; format: cell-based; settings: 872842
Procedure, shortened: as §1

[8] = test system: Klebsiella pneumoniae 968733; format: cell-based; settings: 968733
Procedure, shortened: as §1

[9] = 2 × 40 mg/kg s.c. at a 12-hr interval
[10] = 2 × 30 mg/kg s.c. at a 12-hr interval

| SMILES | Mortality and dose (male ICR mice; [9]) | Hemolysis at 200 μg/mL [1] | Pseudomonas aeruginosa ATCC 27853 MIC [2] | MIC [3] | Escherichia coli ATCC 25922 MIC [4] | Acinetobacter baumannii DSM 30008 MIC [5] | MIC (Escherichia coli 926415) | Klebsiella pneumoniae SSI #3010 MIC [6] | MIC [7] | MIC [8] | Mortality and dose (male ICR mice; [10]) | MIC [2] | MIC [4] | MIC [5] | MIC [6] |
| --- | --- | --- | --- | --- | --- | --- | --- | --- | --- | --- | --- | --- | --- | --- | --- |
| CC[C@@H]1NC(=O)[C@@H](CC(C)C)NC(=O)[C@H](CCN)NC(=O)[C@@H](NC(=O)[C@H](CCN)NC(=O)[C@@H](NC(=O)[C@H](CCN)NC(=O)CC[C@@H]2NC(=O)[C@H](CCN)NC(=O)[C@H](Cc3ccc(O)cc3)NC(=O)[C@@H](NC(=O)[C@@H](NC(C)=O)C(C)C)CSSC[C@@H](C(=O)N[C@@H](CO)C(N)=O)NC(=O)[C@H](C(C)C)NC(=O)[C@H](CO)NC(=O)[C@H](Cc3c[nH]c4ccccc34)NC(=O)[C@H](CO)NC(=O)[C@@H](CCN)NC2=O)[C@@H](C)O)CCNC(=O)[C@H]([C@@H](C)O)NC(=O)[C@H](CCN)NC(=O)[C@H](CCN)NC1=O [Ex. 332] (I: Ac-VCY[Dab]E[dDab]SWSVCS-NH2 / II: [Dab]T[Dab][Dab][Dab][dL][Abu][Dab][Dab]T; disulfide I:2-I:11; amide I:5-II:N; lactam II:4-II:C) | 0/3 died at 2 × 40 mg/kg | 2% | 0.25 µg/mL | 0.125 µg/mL (≈ 0.0524 µM) | 0.03125 µg/mL | 0.0625 µg/mL | 0.25 µg/mL (≈ 0.105 µM) | 0.0625 µg/mL | 0.25 µg/mL (≈ 0.105 µM) | 0.5 µg/mL (≈ 0.21 µM) |  |  |  |  |  |
| CCCC[C@H](NC(C)=O)C(=O)N[C@H]1CSSC[C@@H](C(=O)N[C@H](C(N)=O)[C@@H](C)O)NC(=O)[C@H]([C@@H](C)CC)NC(=O)[C@H](CO)NC(=O)[C@H](Cc2c[nH]c3ccccc23)NC(=O)[C@H](CCN)NC(=O)[C@@H](CCN)NC(=O)[C@H](CCC(=O)N[C@@H](CCN)C(=O)N[C@H](C(=O)N[C@@H](CN)C(=O)N[C@H]2CCNC(=O)[C@H]([C@@H](C)O)NC(=O)[C@H](CCN)NC(=O)[C@H](CCN)NC(=O)[C@H](CC)NC(=O)[C@@H](CC(C)C)NC(=O)[C@H](CCN)NC2=O)[C@@H](C)O)NC(=O)[C@H](CO)NC(=O)[C@H](Cc2ccc(O)cc2)NC1=O [Ex. 259] (I: Ac-[Nle]CYSE[dDab][Dab]WSICT-NH2 / II: [Dab]T[Dap][Dab][Dab][dL][Abu][Dab][Dab]T; disulfide I:2-I:11; amide I:5-II:N; lactam II:4-II:C) |  | 2% |  | 0.0625 µg/mL (≈ 0.0259 µM) |  |  | 0.125 µg/mL (≈ 0.0518 µM) |  | 0.03125 µg/mL (≈ 0.013 µM) | 0.0625 µg/mL (≈ 0.0259 µM) | 0/3 died at 2 × 30 mg/kg | 0.0625 µg/mL (≈ 0.0259 µM) | 0.01562 µg/mL (≈ 0.00647 µM) | 0.01562 µg/mL (≈ 0.00647 µM) | 0.03125 µg/mL (≈ 0.013 µM) |
| CC(=O)N[C@H](C(=O)N[C@H]1CSSC[C@@H](C(=O)N[C@@H](CO)C(N)=O)NC(=O)[C@H](C(C)C)NC(=O)[C@H](CO)NC(=O)[C@H](Cc2c[nH]c3ccccc23)NC(=O)[C@H](CO)NC(=O)CNC(=O)[C@H](CCC(=O)N[C@@H](CCN)C(=O)N[C@H](C(=O)N[C@@H](CN)C(=O)N[C@H]2CCNC(=O)[C@H]([C@@H](C)O)NC(=O)[C@H](CCN)NC(=O)[C@H](CCN)NC(=O)[C@H](CC(C)C)NC(=O)[C@@H](CC(C)C)NC(=O)[C@H](CCN)NC2=O)[C@@H](C)O)NC(=O)[C@H](CCN)NC(=O)[C@H](Cc2ccc(O)cc2)NC1=O)C(C)C [Ex. 337] (I: Ac-VCY[Dab]EGSWSVCS-NH2 / II: [Dab]T[Dap][Dab][Dab][dL]L[Dab][Dab]T; disulfide I:2-I:11; amide I:5-II:N; lactam II:4-II:C) | 0/3 died at 2 × 40 mg/kg | 2% | 0.25 µg/mL | 0.25 µg/mL (≈ 0.106 µM) | 0.0625 µg/mL | 0.125 µg/mL | 1 µg/mL (≈ 0.424 µM) | 0.125 µg/mL | 0.25 µg/mL (≈ 0.106 µM) | 2 µg/mL (≈ 0.849 µM) |  |  |  |  |  |
| CC(=O)N[C@H](C(=O)N[C@H]1CCNC(=O)C[C@@H](C(=O)N[C@@H](CO)C(N)=O)NC(=O)[C@H](C(C)C)NC(=O)[C@H](CO)NC(=O)[C@H](Cc2c[nH]c3ccccc23)NC(=O)CNC(=O)[C@@H](CCN)NC(=O)[C@H](CCC(=O)N[C@@H](CCN)C(=O)N[C@H](C(=O)N[C@@H](CN)C(=O)N[C@H]2CCNC(=O)[C@H]([C@@H](C)O)NC(=O)[C@H](CCN)NC(=O)[C@H](CCN)NC(=O)[C@H](CC(C)C)NC(=O)[C@@H](CC(C)C)NC(=O)[C@H](CCN)NC2=O)[C@@H](C)O)NC(=O)[C@H](CCN)NC(=O)[C@H](Cc2ccc(O)cc2)NC1=O)C(C)C [Ex. 351] (I: Ac-V[Dab]Y[Dab]E[dDab]GWSVDS-NH2 / II: [Dab]T[Dap][Dab][Dab][dL]L[Dab][Dab]T; lactam I:2-I:11, II:4-II:C; amide I:5-II:N) | 0/3 died at 2 × 40 mg/kg | <1% | 0.125 µg/mL | 0.25 µg/mL (≈ 0.106 µM) | 0.0625 µg/mL | 0.0625 µg/mL | 0.5 µg/mL (≈ 0.212 µM) | 0.0625 µg/mL | 0.25 µg/mL (≈ 0.106 µM) | 1 µg/mL (≈ 0.423 µM) |  |  |  |  |  |
| CC(C)C[C@@H]1NC(=O)[C@@H](CC(C)C)NC(=O)[C@H](CCN)NC(=O)[C@@H](NC(=O)[C@H](CN)NC(=O)[C@@H](NC(=O)[C@H](CCN)NC(=O)CC[C@@H]2NC(=O)[C@H](CCN)NC(=O)[C@H](Cc3ccc(O)cc3)NC(=O)[C@@H](NC(=O)[C@@H](O)C(C)C)CSSC[C@@H](C(=O)N[C@@H](CO)C(=O)N[C@H](C)C(N)=O)NC(=O)[C@H](C(C)C)NC(=O)[C@H](CO)NC(=O)[C@H](Cc3c[nH]c4ccccc34)NC(=O)[C@H](CO)NC(=O)[C@@H](CCN)NC2=O)[C@@H](C)O)CCNC(=O)[C@H]([C@@H](C)O)NC(=O)[C@H](CCN)NC(=O)[C@H](CCN)NC1=O [Ex. 379] (I: H-[Hiv]CY[Dab]E[dDab]SWSVCS[dA]-NH2 / II: [Dab]T[Dap][Dab][Dab][dL]L[Dab][Dab]T; disulfide I:2-I:11; amide I:5-II:N; lactam II:4-II:C) | 0/3 died at 2 × 40 mg/kg | <1% | 0.125 µg/mL | 1 µg/mL (≈ 0.412 µM) | 0.03125 µg/mL | 0.0625 µg/mL | 0.25 µg/mL (≈ 0.103 µM) | 0.0625 µg/mL | 0.125 µg/mL (≈ 0.0515 µM) | 0.25 µg/mL (≈ 0.103 µM) |  |  |  |  |  |
| CC(=O)N[C@H](C(=O)N[C@H]1CSSC[C@@H](C(=O)N[C@@H](Cc2ccc(O)cc2)C(N)=O)NC(=O)[C@H](C(C)C)NC(=O)[C@H](CO)NC(=O)[C@H](Cc2c[nH]c3ccccc23)NC(=O)[C@H](CCO)NC(=O)[C@@H](CCN)NC(=O)[C@H](CCC(=O)N[C@@H](CCN)C(=O)N[C@H](C(=O)N[C@@H](CCN)C(=O)N[C@H]2CCNC(=O)[C@H]([C@@H](C)O)NC(=O)[C@H](CCN)NC(=O)[C@H](CCN)NC(=O)[C@H](CC(C)C)NC(=O)[C@@H](CC(C)C)NC(=O)[C@H](CCN)NC2=O)[C@@H](C)O)NC(=O)[C@H](CCN)NC(=O)[C@H](CO)NC1=O)C(C)C [Ex. 65] (I: Ac-VCS[Dab]E[dDab][hSer]WSVCY-NH2 / II: [Dab]T[Dab][Dab][Dab][dL]L[Dab][Dab]T; disulfide I:2-I:11; amide I:5-II:N; lactam II:4-II:C) |  | <1% |  | 4 µg/mL (≈ 1.65 µM) |  |  | 0.5 µg/mL (≈ 0.206 µM) |  | 0.25 µg/mL (≈ 0.103 µM) | 0.5 µg/mL (≈ 0.206 µM) | 0/3 died at 2 × 30 mg/kg | 0.125 µg/mL (≈ 0.0515 µM) | 0.125 µg/mL (≈ 0.0515 µM) | 0.125 µg/mL (≈ 0.0515 µM) | 0.25 µg/mL (≈ 0.103 µM) |

Reference: patent publication US11629171B2, “Beta-hairpin peptidomimetics” (POLYPHOR AG, priority 2017, dated 2023)
